This note sets out measurements from patent US20050272750A1, “Novel compound” (AstraZeneca AB, priority 2002, published 2005).

Structures are written as SMILES.

Data set [1] concerns the target T1, CXCR2 receptor in human neutrophils (Homo sapiens, UniProt P25025).
T1 construct: Human neutrophils were prepared from EDTA-treated peripheral blood; endogenous in cells; host or cells: human neutrophils from peripheral blood
T1 sequence (P25025 1-360): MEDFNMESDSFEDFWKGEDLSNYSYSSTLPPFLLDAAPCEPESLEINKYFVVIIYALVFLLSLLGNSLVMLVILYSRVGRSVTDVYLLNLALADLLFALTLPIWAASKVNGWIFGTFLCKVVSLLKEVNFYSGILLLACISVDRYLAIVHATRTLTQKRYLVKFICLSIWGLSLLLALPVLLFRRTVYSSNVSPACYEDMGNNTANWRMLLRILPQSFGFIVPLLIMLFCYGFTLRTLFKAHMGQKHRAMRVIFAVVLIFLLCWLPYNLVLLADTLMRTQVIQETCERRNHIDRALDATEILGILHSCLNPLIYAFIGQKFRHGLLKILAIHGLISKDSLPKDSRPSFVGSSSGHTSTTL
Kind of data set: Intracellular calcium mobilisation assay (GROα-stimulated, fluo-3, FLIPR). The class given is cell-based. To be noted: A50 concentration of GROα, fluo-3 fluorescence. Here is the method:
Intracellular Calcium Mobilisation Assay
Human neutrophils were prepared from EDTA-treated peripheral blood, as previously described (Baly et al. (1997) Methods in Enzymology 287 pp70-72), in storage buffer [Tyrode's salt solution (137 mM NaCl 2.7 mM KCl, 0.4 mM NaH2PO4) supplemented with 5.7 mM glucose and 10 mM HEPES (pH 7.4)].
The chemokine GROα (human, recombinant) was purchased from R&D Systems (Abingdon, U.K.). All other chemicals were of analytical grade. Changes in intracellular free calcium were measured fluorometrically by loading neutrophils with the calcium sensitive fluorescent dye, fluo-3, as described previously (Merritt et al. (1990) Biochem. J. 269, pp513-519). Cells were loaded for 1 hour at 37° C. in loading buffer (storage buffer with 0.1% (w/v) gelatin) containing 5 μM fluo-3 AM ester, washed with loading buffer and then resuspended in Tyrode's salt solution supplemented with 5.7 mM glucose, 0.1% (w/v) bovine serum albumin (BSA), 1.8 mM CaCl2 and 1 mM MgCl2. […]
A compound of formula (1) according to the Examples was pre-dissolved in DMSO and added to a final concentration of 0.1% (v/v) DMSO. Assays were initiated by the addition of an A50 concentration of GROα and the transient increase in fluo-3 fluorescence (λEx=490 nm and λEm=520 nm) monitored using a FLIPR (Fluorometric Imaging Plate Reader, Molecular Devices, Sunnyvale, U.S.A).
Background: Calcium flux is commonly read through the fluorescence of an indicator in the cells.

The target in data set [2] is T2, hrCXCR2 (Homo sapiens, UniProt P25025).
T2 construct: expressed in transfected cells; host or cells: HEK 293 cells (ECACC No. 85120602), membranes of the highest expressing clone
T2 sequence (P25025 1-360): T1 sequence (P25025 1-360)
Briefly: Ligand binding assay ([125I]IL-8 displacement, HEK 293 membranes). Conditions: [125I]IL-8 binding to membranes of HEK 293 cells expressing hrCXCR2; 1.5 hours at room temperature. An excerpt: [^125I]IL-8 (human, recombinant) was purchased from Amersham, U.K. with a specific activity of 2,000 Ci/mmol. All other chemicals were of analytical grade. High levels of hrCXCR2 were expressed in HEK 293 cells (human embryo kidney 293 cells ECACC No. 85120602) (Lee et al. (1992) J. Biol. Chem. 267 pp 16283-16291). hrCXCR2 cDNA was amplified and cloned from human neutrophil mRNA. The DNA was cloned into PCRScript (Stratagene) and clones were identified using DNA. The coding sequence was sub-cloned into the eukaryotic expression vector RcCMV (Invitrogen). Plasmid DNA was prepared using Quiagen Megaprep 2500 and transfected into HEK 293 cells using Lipofectamine reagent (Ginbco BRL). Cells of the highest expressing clone were harvested in phosphate-buffered saline containing 0.2% (w/v) ethylenediaminetetraacetic acid (EDTA) and centrifuged (200 g, 5 min.). The cell pellet was resuspended in ice cold homogenisation buffer [[…] HEPES (pH 7.4), 1 mM dithiothreitol 1 mM EDTA and a panel of protease inhibitors (1 mM phenyl methyl sulphonyl fluoride, 2 μg/ml soybean trypsin inhibitor, 3 mM benzamidine, 0.5 μg/ml leupeptin and 100 μg/ml bacitracin)] and the cells left to swell for 10 minutes. […] The backing plate was removed from the MultiScreen plate assembly, the filters dried at room temperature, punched out and then counted on a Cobra γ-counter.

By melting point is commonly meant the temperature, or range, at which the solid turns liquid. The term IC50 denotes the concentration that inhibits the measured activity by half. `C[C@H](O)[C@H](CO)Nc1nc(SCc2cccc(F)c2F)nc2[nH]c(=O)sc12` [compound of formula (I), 5-[((2,3-difluorophenyl)methyl)thio]-7-{[(1S,2S)-2-hydroxy-1-(hydroxymethyl)propyl]amino}thiazolo[4,5-d]pyrimidin-2(3B)-one]: the melting point fell in the range of 202 to 204 °C. For the same molecule, the “antagonism of the CXCR2 receptor (GROα-induced intracellular calcium increase)” value in data set [1] is “antagonist”. The molecule also gave an IC50 in data set [2] of under 10 µM.
